Test results: patent publication US20250099464A1, “PHARMACEUTICAL COMPOSITIONS” (ViiV Healthcare UK (No.3) Limited, priority 2023, published 2025)

Experiment: Cabotegravir population pharmacokinetic (PopPK) model
Set-up: species or system human
Method: A cabotegravir population pharmacokinetic (PopPK) model was built based on PK data following cabotegravir (CAB) 200 mg/mL intramuscular (IM) injections collected in 16 historical studies (Population pharmacokinetics of cabotegravir following administration of oral tablet and long-acting intramuscular injection in adult HIV-1-infected and uninfected subjects. Han K, Baker M, Lovern M, Paul P, Xiong Y, Patel P, Moore K P, Seal C S, Cutrell A G, D'Amico R D, Benn P D, Landovitz R J, Marzinke M A, Spreen W R, Ford S L. Br J Clin Pharmacol. 2022 October; 88(10):4607-4622. doi: 10.1111/bcp.15439. Epub 2022 Jul. 4. PMID: 35695476) and updated based on PK data from 19 studies: LAI116585, LAI117010, LAI117011, LAI117020, 201741, 201479, 201480, 205696, LAI116482 (LATTE), LAI115428, LAI116815, 200056 (LATTE-2), 201120 (ECLAIR), 201103 (HPTN077), 201584 (FLAIR), 201585 (ATLAS), 207966 (ATLAS-2M), 201738 (HPTN 083) and 201739 (HPTN 084). A total of 34,850 CAB plasma concentrations collected at various time points from 2,694 participants were used to build this PopPK model. […] The simulations were performed as follows: covariates including body weight, BMI and smoking status were resampled 5000 times from the distribution of these covariates for males and females, generating 5000 virtual male subjects and 5000 virtual female subjects. Individual PK parameters of the virtual subjects were calculated using subject-specific covariates and using the population parameter estimates, subject-specific NONMEM inter-individual errors (ETAs) sampled from the distributions that are decided by the estimated variance-covariate matrix of between-subject variability from the final population PK model. Concentration-versus-time profiles of the virtual subjects were calculated using the individual PK parameters. Residual variability (EPS) was included in the simulation. Median and 10th and 90th percentiles (80% prediction interval) of the simulated concentration-versus-time profiles of the virtual males and females were calculated. […]

KA2 in relation to BMI: decreased with increasing BMI
KA2 in relation to needle length: lower with longer needle length
Long-acting intramuscular gluteal absorption rate constant (KA2), lower in people assigned female at birth than people assigned male at birth (CAB 200 mg/mL IM injections): 46.5%
SMILES: C[C@H]1CO[C@@H]2Cn3cc(C(=O)NCc4ccc(F)cc4F)c(=O)c(O)c3C(=O)N12 [cabotegravir, (3S,11aR)—N-((2,4-difluorophenyl)methyl)-6-hydroxy-3-methyl-5,7-dioxo-2,3,5,11,11a-hexahydro(1,3)oxazolo(3,2-a)pyrido(1,2-d)pyrazine-8-carboxamide]
